Laboratory results published in patent US20100234442A1, “Compositions and Methods for Treatment and Prevention of Cardiovascular Disease” (Nucitec S.A. de C.V., priority 2009, published 2010).

Test system: hypercholesterolemic patients
Assay: 8-week, randomized, double-blind, active-controlled, parallel-group study of vascular markers in hypercholesterolemic patients
Type: in vivo, human
Procedure: This was a 8-week, randomized, double-blind, active-controlled, parallel-group study. All patients provided written, informed consent before the start of the study.
Patients, investigator staff, persons performing the assessment, and data analysts remained blinded to the identity of the treatment from the time of randomization until data base lock. Treatments were all identical in packaging, labeling, schedule of administration and appearance. Treatments were administered to patients via a single pill.
20 hypercholesterolemic patients, ≧45 years old, were compared in this study. Patients were classified into one of four groups, consisting of five patients in each group.
Group I was treated with a single daily dose of simvastatin alone (20 mg). Group II was treated with a single daily dose simvastatin (20 mg) and acetylsalicylic acid (75 mg). Group III was treated with a single daily dose of simvastatin (20 mg) and enalapril (10 mg). Group IV was treated with a single daily dose of simvastatin (20 mg), acetylsalicylic acid (75 mg), and enalapril (10 mg). All patients were treated for eight weeks.
The primary efficacy variable was the change from the baseline to the final assessment in vascular markers of LDL-Cholesterol (LDL-C), C Reactive Protein (CRP), Interleukin 6 (IL-6), Systolic Blood Pressure (SBP), and nitric oxide (NO).

[1] = change from baseline to final, eight weeks
[2] = final assessment after eight weeks, single daily oral dose

In the case of `CCC(C)(C)C(=O)O[C@H]1C[C@@H](C)C=C2C=C[C@H](C)[C@H](CC[C@@H]3C[C@@H](O)CC(=O)O3)[C@H]21` [Simvastatin alone, simvastatin], the “IL-6 Baseline” value (baseline, before treatment) is reported as 4.6 pg/mL, the “Nitric oxide Baseline” value (baseline, before treatment) is reported as 87 µmol/L and the “SBP Baseline” value (baseline, before treatment) is reported as 142 mmHg. For the same compound, the “LDL-C Baseline” value (baseline, before treatment, five patients per group) was 159 mg/dL, the “CRP % Δ” value [1] was −18% and the “IL-6 % Δ” value [1] was −39%. For the same compound, the “LDL-C % Δ” value [1] was −38%, the “Nitric oxide % Δ” value [1] was −9% and the “SBP % Δ” value [1] was −0.8%. For the same compound, the “IL-6 Final” value [2] was 2.8 pg/mL, the “LDL-C Final” value [2] was 99 mg/dL and the “Nitric oxide Final” value [2] was 79 µmol/L. The “SBP Final” value [2] was 141 mmHg.
